Measurements from publication PMC11040670, “Mechanistic and Kinetic Insights into Cellular Uptake of Biomimetic Dinitrosyl Iron Complexes and Intracellular Delivery of NO for Activation of Cytoprotective HO-1” (JACS Au, 2024).
Marks after values point to notes of the source that are not given here.

Tests used:
[1] = tested on: HMOX1 gene; assay: Real-time PCR of HMOX1 gene in MSC; assay type: cell-based, human; details: at 3 h, 100 μM DNIC–COOH or 2.5 μM DNIC–COOMe
Procedure: After treatment of (1) 100 μM of DNIC–COOH to MSC, (2) 100 μM of DNIC–COOH to N2a, (3) 75 μM of DNIC–COOH to HCEC, (4) 2.5 μM of DNIC–COOMe to MSC, (5) 10 μM of DNIC–COOMe to N2a, and (6) 1 μM of DNIC–COOMe to HCEC, respectively, the total RNA of the treated cells was extracted using TRIzol Reagent (Thermo Fisher Scientific) in order to assess the time-dependent change in the mRNA level of HO-1. After the synthesis of complementary DNA with the High-Capacity Reverse Transcription Kit, qPCR was conducted using Power SYBR Green PCR Master Mix with the StepOnePlus Real-Time PCR System (Thermo Fisher Scientific). […] The relative mRNA levels of target genes were determined by a comparative threshold cycle method and normalized to that of RPL13A (or GAPDH). The mRNA level of HO-1 in the MSC, N2a, and HCEC cells, respectively, that received the (1) sequential treatments of 1H-[1,2,4]oxadiazolo-[4,3-a]quinoxalin-1-one (ODQ, 10 μM for 1 h) and DNIC–COOH (100 μM in MSC for 3 h, 100 μM in N2a for 10 h, and 75 μM in HCEC for 6 h) or (2) cotreatment of 2-phenyl-4,4,5,5-tetramethylimidazoline-1-oxyl-3-oxide (PTIO, 100 μM in MSC, 200 μM in N2a, and 100 μM in HCEC) and DNIC–COOH (100 μM in MSC for 3 h, 100 μM in N2a for 10 h, and 75 μM in HCEC for 6 h) was also evaluated under a similar procedure.

[2] = tested on: MSC; assay: Intracellular release of NO (DAF-FM fluorescence) in MSC; assay type: cell-based, human; details: 100 μM DNIC–COOH or 2.5 μM DNIC–COOMe
Procedure: Intracellular release of NO by DNIC–COOH was validated using the fluorescence probe 4-amino-5-methylamino-2′,7′-difluorofluorescein diacetate (DAF-FM) in combination with fluorescence analysis techniques. Briefly, the MSC cells (or N2a and HCEC cells) were seeded onto a 96-well black plate at a density of 6 × 10^3 cells/well (or 1 × 10^4 cells/well for N2a and 8 × 10^3 cells/well for HCEC cells) and incubated at 37 °C overnight. On the next day, the MSC cells were first treated with 10 μM of DAF-FM (or 5 μM for N2a and HCEC cells) and incubated at 37 °C for 0.5 h. […] Fluorescence intensity of the cells was then recorded using a microplate reader (SpectraMax iD3, Molecular Devices, San Jose, CA) with an excitation wavelength at 485 nm and an emission wavelength at 525 nm. Three independent experiments were executed to measure the time-dependent change of average fluorescence intensity. Time-dependent change of average fluorescence intensity for the MSC/N2a/HCEC cells with sequential treatment of DAF-FM (10 μM for MSC cells, 5 μM for N2a cells, 5 μM for HCEC cells; 0.5 h) and DNIC–COOMe (2.5 μM for MSC cells, 10 μM for N2a cells, 1 μM for HCEC cells) was determined in a similar manner. […]

[3] = tested on: deoxyMb; assay: Direct transfer of NO to deoxyMb yielding MbNO (UV–vis); assay type: biochemical; details: deoxyMb 5 μM/Cys 200 μM, generated [(NO)2Fe(SR)(SCys)]n−, phosphate buffer (pH 7.4), anaerobic
Procedure: After addition of 30 μL of 500 μM stock solution of DNIC–COOH (in DMSO) to a 4 mL quartz cuvette containing 5 μM metMb and 200 μM Cys in 3 mL of 25 mM PBS (pH 7.4), UV–vis spectra for this mixture solution were measured every 30 min. Transformation of […] into MbNO was achieved after reaction for 4 h based on the complete shift of UV–vis absorption bands from (410, 502, and 629) nm to (419, 548, and 578) nm.
Reactions of (a) 5 μM of DNIC–COOMe with 5 μM of metMb in the presence of 200 μM of Cys, (b) 5 μM of DNIC–COOH/DNIC–COOMe with 5 μM of deoxyMb in the presence of 200 μM of Cys, and (c) 5 μM of DNIC–COOH/DNIC–COOMe with 5 μM of metMb in the presence of 50 mg/mL BSA were performed under a similar manner.

| SMILES | activation of HMOX1 gene [1] | tmax for intracellular release of NO [2] | reaction time for complete conversion of deoxyMb into MbNO [3] | reaction time for complete conversion of deoxyMb into MbNO ([3]; listed as DNIC-COOH) | reaction time for complete conversion of deoxyMb into MbNO ([3]; listed as DNIC-COOMe) |
| --- | --- | --- | --- | --- | --- |
| O=[N][Fe]1([N]=O)[SH](CCC(=O)O)[Fe]([N]=O)([N]=O)[SH]1CCC(=O)O (centres unmarked) [DNIC–COOH, [(NO)2Fe(μ-SCH2CH2COOH)2Fe(NO)2]] | 49.5 ± 2.9 fold | 4 h | 3.5 ^f h | 3.5 h | – |
| COC(=O)CC[SH]1[Fe]([N]=O)([N]=O)[SH](CCC(=O)OC)[Fe]1([N]=O)[N]=O (centres unmarked) [DNIC–COOMe, [(NO)2Fe(μ-SCH2CH2COOCH3)2Fe(NO)2]] | 18.8 ± 2.3 fold | 1 h | 2.0 ^f h | – | 2.0 h |
